Experiment [1] concerns the target T1, human amylin receptor (calcitonin receptor co-expressed with receptor activity modifying protein, RAMP3) (hAMYR3) (Homo sapiens, UniProt O60896+P30988).
T1 construct: expressed in transfected cells
T1 sequence (P30988 25-474): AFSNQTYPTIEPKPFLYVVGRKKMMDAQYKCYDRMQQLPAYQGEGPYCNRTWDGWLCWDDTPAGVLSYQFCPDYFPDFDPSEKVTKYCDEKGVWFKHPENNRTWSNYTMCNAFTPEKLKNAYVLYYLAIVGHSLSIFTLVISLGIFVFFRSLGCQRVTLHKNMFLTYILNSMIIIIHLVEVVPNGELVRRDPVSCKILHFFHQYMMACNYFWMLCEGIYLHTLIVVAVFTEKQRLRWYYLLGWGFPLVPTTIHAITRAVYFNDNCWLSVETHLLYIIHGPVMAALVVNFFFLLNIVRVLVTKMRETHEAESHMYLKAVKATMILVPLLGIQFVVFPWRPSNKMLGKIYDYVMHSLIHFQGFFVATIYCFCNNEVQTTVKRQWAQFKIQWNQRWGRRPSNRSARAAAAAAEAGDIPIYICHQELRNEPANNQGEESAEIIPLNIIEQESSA
T1 sequence (O60896 24-148 partner): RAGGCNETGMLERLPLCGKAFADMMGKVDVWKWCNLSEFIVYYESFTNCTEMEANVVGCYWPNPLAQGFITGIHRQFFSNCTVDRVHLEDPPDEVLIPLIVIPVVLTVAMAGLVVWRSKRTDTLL
The experiment is described as follows: cAMP production in 1321N1 cells with stable recombinant expression of human amylin receptor (hAMYR3). Conditions: for Ratio (selectivity hAMYR vs hCTR, ratio of EC50 values at the two receptors): EC50 hCTR / EC50 hAMYR3; for EC50: cAMP, 1321N1 cells, assay buffer with 0.1% BSA, read-out: EC50 (pM) hAMYR3. The format is cell-based. A digest of the protocol:
(§1)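 Thawed cells in HBSS/0.1% BSA/25 mM HEPES pH 7.4 with 0.5 mM IBMX were incubated with peptides 30 min at room temperature; cAMP read by HTRF. EC50 from 4-parameter fit of % activation relative to maximal amylin or calcitonin effect.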

Experiment [2] has as its target T2, human calcitonin receptor (hCTR) (Homo sapiens, UniProt P30988).
T2 construct: expressed in transfected cells
T2 sequence (P30988 25-474): T1 sequence (P30988 25-474)
Nature of the experiment: cAMP production in 1321N1 cells with stable recombinant expression of human calcitonin receptor (hCTR). The following applies: cAMP, 1321N1 cells, assay buffer with 0.1% BSA; read-out: EC50 (pM) hCTR. The format is cell-based. Summed up: as §1

Each structure is given as a SMILES string. Numbered stars: 1 amine (or outer) side, 2 acyl side, 3 side chain; on linkers, the order of the positions; unused ones are H or OH. Bridge positions count the residues as written; N and C are the ends. Square brackets hold non-standard residues; d marks the D form. Side chains are listed from the residue outwards. Peptide text beside a SMILES is read from it. * marks the point of attachment. C18 diacid = O=C(O)CCCCCCCCCCCCCCCCC(=O)*; γGlu = O=C(O)[C@H](CCC(=O)[*:2])N[*:1]; Aib = CC(C)(N)C(=O)O

As to `CC[C@H](C)[C@H](NC(=O)[C@@H]1CCCN1C(=O)CNC(=O)[C@H](Cc1ccccc1)NC(=O)[C@H](CC(N)=O)NC(=O)[C@H](CC(N)=O)NC(=O)[C@H](CO)NC(=O)[C@H](CO)NC(=O)[C@H](Cc1c[nH]cn1)NC(=O)C(C)(C)NC(=O)[C@H](CC(C)C)NC(=O)[C@H](Cc1ccccc1)NC(=O)[C@H](CC(N)=O)NC(=O)[C@H](C)NC(=O)[C@H](CC(C)C)NC(=O)[C@H](CCCNC(=N)N)NC(=O)[C@H](CCC(N)=O)NC(=O)[C@@H](NC(=O)[C@H](C)NC(=O)[C@@H]1CSSC[C@H](NC(=O)[C@H](CCCCN)NC(=O)[C@@H](N)CCCCNC(=O)CC[C@H](NC(=O)CCCCCCCCCCCCCCCCC(=O)O)C(=O)O)C(=O)N[C@@H](CC(N)=O)C(=O)N[C@@H]([C@@H](C)O)C(=O)N[C@@H](C)C(=O)N[C@@H]([C@@H](C)O)C(=O)N1)[C@@H](C)O)C(=O)N[C@@H](CC(C)C)C(=O)N1CCC[C@H]1C(=O)N1CCC[C@H]1C(=O)N[C@H](C(=O)N[C@@H](CC(N)=O)C(=O)N[C@H](C(=O)NCC(=O)N[C@@H](CO)C(=O)N[C@@H](CC(N)=O)C(=O)N[C@H](C(=O)N1CCC[C@H]1C(N)=O)[C@@H](C)O)C(C)C)[C@@H](C)O` [Peptide 136] (H-K([γGlu-C18 diacid])KCNTATCATQRLANFL[Aib]HSSNNFGPILPPTNVGSNTP-NH2; disulfide 3-8; N-terminus assumed), in experiment [1], the “Ratio (selectivity hAMYR vs hCTR, ratio of EC50 values at the two receptors)” value came to 0.8 and the concentration giving a half-maximal response (EC50) (commonly the concentration that produces a half-maximal response) came out at 122 pM. Further, in experiment [2], the concentration for a half-maximal effect (EC50) worked out at 101 pM.

On to `CC[C@H](C)[C@H](NC(=O)[C@@H]1CCCN1C(=O)CNC(=O)[C@H](Cc1ccccc1)NC(=O)[C@H](CC(N)=O)NC(=O)[C@H](CCCNC(=N)N)NC(=O)[C@H](CO)NC(=O)[C@H](CO)NC(=O)[C@H](Cc1c[nH]cn1)NC(=O)C(C)(C)NC(=O)[C@H](CC(C)C)NC(=O)[C@H](Cc1ccccc1)NC(=O)[C@H](CC(N)=O)NC(=O)[C@H](C)NC(=O)[C@H](CC(C)C)NC(=O)[C@H](CCCNC(=N)N)NC(=O)[C@H](CCC(N)=O)NC(=O)[C@@H](NC(=O)[C@H](C)NC(=O)[C@@H]1CSSC[C@H](NC(=O)[C@H](CCCCN)NC(=O)[C@@H](N)CCCCNC(=O)CC[C@H](NC(=O)CCCCCCCCCCCCCCCCC(=O)O)C(=O)O)C(=O)N[C@@H](CC(N)=O)C(=O)N[C@@H]([C@@H](C)O)C(=O)N[C@@H](C)C(=O)N[C@@H]([C@@H](C)O)C(=O)N1)[C@@H](C)O)C(=O)N[C@@H](CC(C)C)C(=O)N1CCC[C@H]1C(=O)N1CCC[C@H]1C(=O)N[C@H](C(=O)N[C@@H](CC(N)=O)C(=O)N[C@H](C(=O)NCC(=O)N[C@@H](CO)C(=O)N[C@@H](CC(N)=O)C(=O)N[C@H](C(=O)N[C@@H](Cc1ccc(O)cc1)C(N)=O)[C@@H](C)O)C(C)C)[C@@H](C)O` [Peptide 137] (H-K([γGlu-C18 diacid])KCNTATCATQRLANFL[Aib]HSSRNFGPILPPTNVGSNTY-NH2; disulfide 3-8; N-terminus assumed), for which the “Ratio (selectivity hAMYR vs hCTR, ratio of EC50 values at the two receptors)” value in experiment [1] turned out to be 6.3. The figures for the EC50 in experiment [1] and in experiment [2] were 238 pM and 1500 pM, respectively.

As for `CC[C@H](C)[C@H](NC(=O)[C@@H]1CCCN1C(=O)CNC(=O)[C@H](Cc1ccccc1)NC(=O)[C@H](CC(N)=O)NC(=O)[C@@H]1CCCN1C(=O)[C@H](CO)NC(=O)[C@H](CO)NC(=O)[C@H](Cc1c[nH]cn1)NC(=O)C(C)(C)NC(=O)[C@H](CC(C)C)NC(=O)[C@H](Cc1ccccc1)NC(=O)[C@H](CC(N)=O)NC(=O)[C@H](C)NC(=O)[C@H](CC(C)C)NC(=O)[C@H](CCCNC(=N)N)NC(=O)[C@H](CCC(N)=O)NC(=O)[C@@H](NC(=O)[C@H](C)NC(=O)[C@@H]1CSSC[C@H](NC(=O)[C@H](CCCCN)NC(=O)[C@@H](N)CCCCNC(=O)CC[C@H](NC(=O)CCCCCCCCCCCCCCCCC(=O)O)C(=O)O)C(=O)N[C@@H](CC(N)=O)C(=O)N[C@@H]([C@@H](C)O)C(=O)N[C@@H](C)C(=O)N[C@@H]([C@@H](C)O)C(=O)N1)[C@@H](C)O)C(=O)N[C@@H](CC(C)C)C(=O)N1CCC[C@H]1C(=O)N1CCC[C@H]1C(=O)N[C@H](C(=O)N[C@@H](CCC(=O)O)C(=O)N[C@H](C(=O)NCC(=O)N[C@@H](CO)C(=O)N[C@@H](CC(N)=O)C(=O)N[C@H](C(=O)N[C@@H](Cc1ccc(O)cc1)C(N)=O)[C@@H](C)O)C(C)C)[C@@H](C)O` [Peptide 138] (H-K([γGlu-C18 diacid])KCNTATCATQRLANFL[Aib]HSSPNFGPILPPTEVGSNTY-NH2; disulfide 3-8), in experiment [1], the “Ratio (selectivity hAMYR vs hCTR, ratio of EC50 values at the two receptors)” value is 4.1 and the concentration giving a half-maximal response (EC50) came out at 612 pM. The concentration for a half-maximal effect (EC50) in experiment [2] came out at 2510 pM.

Turning to `CC[C@H](C)[C@H](NC(=O)[C@@H]1CCCN1C(=O)CNC(=O)[C@H](Cc1ccccc1)NC(=O)[C@H](CC(N)=O)NC(=O)[C@@H]1CCCN1C(=O)[C@H](CO)NC(=O)[C@H](CO)NC(=O)[C@H](Cc1c[nH]cn1)NC(=O)C(C)(C)NC(=O)[C@H](CC(C)C)NC(=O)[C@H](Cc1ccccc1)NC(=O)[C@H](CC(N)=O)NC(=O)[C@H](C)NC(=O)[C@H](CC(C)C)NC(=O)[C@H](CCCNC(=N)N)NC(=O)[C@H](CCC(N)=O)NC(=O)[C@@H](NC(=O)[C@H](C)NC(=O)[C@@H]1CSSC[C@H](NC(=O)[C@H](CCCCN)NC(=O)[C@@H](N)CCCCNC(=O)CC[C@H](NC(=O)CCCCCCCCCCCCCCCCC(=O)O)C(=O)O)C(=O)N[C@@H](CC(N)=O)C(=O)N[C@@H]([C@@H](C)O)C(=O)N[C@@H](C)C(=O)N[C@@H]([C@@H](C)O)C(=O)N1)[C@@H](C)O)C(=O)N[C@@H](CC(C)C)C(=O)N1CCC[C@H]1C(=O)N1CCC[C@H]1C(=O)N[C@H](C(=O)N[C@@H](CC(N)=O)C(=O)N[C@H](C(=O)NCC(=O)N[C@@H](CO)C(=O)N[C@@H](CCC(=O)O)C(=O)N[C@H](C(=O)N[C@@H](Cc1ccc(O)cc1)C(N)=O)[C@@H](C)O)C(C)C)[C@@H](C)O` [Peptide 139] (H-K([γGlu-C18 diacid])KCNTATCATQRLANFL[Aib]HSSPNFGPILPPTNVGSETY-NH2; disulfide 3-8; N-terminus assumed), the “Ratio (selectivity hAMYR vs hCTR, ratio of EC50 values at the two receptors)” value in experiment [1] amounted to 3.7. Also, the EC50 was found to be 285 pM in experiment [1] and 1040 pM in experiment [2].

As to `CC[C@H](C)[C@H](NC(=O)[C@@H]1CCCN1C(=O)CNC(=O)[C@H](Cc1ccccc1)NC(=O)[C@H](CC(N)=O)NC(=O)[C@H](CC(N)=O)NC(=O)[C@H](CO)NC(=O)[C@H](CO)NC(=O)[C@H](Cc1c[nH]cn1)NC(=O)C(C)(C)NC(=O)[C@H](CC(C)C)NC(=O)[C@H](Cc1ccccc1)NC(=O)[C@H](CC(N)=O)NC(=O)[C@H](C)NC(=O)[C@H](CC(C)C)NC(=O)[C@H](CCCNC(=N)N)NC(=O)[C@H](CCC(N)=O)NC(=O)[C@@H](NC(=O)[C@H](C)NC(=O)[C@@H]1CSSC[C@H](NC(=O)[C@H](CCCCN)NC(=O)[C@@H](N)CCCCNC(=O)CC[C@H](NC(=O)CCCCCCCCCCCCCCCCC(=O)O)C(=O)O)C(=O)N[C@@H](CC(N)=O)C(=O)N[C@@H]([C@@H](C)O)C(=O)N[C@@H](C)C(=O)N[C@@H]([C@@H](C)O)C(=O)N1)[C@@H](C)O)C(=O)N[C@@H](CC(C)C)C(=O)N1CCC[C@H]1C(=O)N1CCC[C@H]1C(=O)N[C@H](C(=O)N[C@@H](CC(N)=O)C(=O)N[C@H](C(=O)NCC(=O)N[C@@H](CO)C(=O)N[C@@H](CCCNC(=N)N)C(=O)N[C@H](C(=O)N[C@@H](Cc1ccc(O)cc1)C(N)=O)[C@@H](C)O)C(C)C)[C@@H](C)O` [Peptide 141] (H-K([γGlu-C18 diacid])KCNTATCATQRLANFL[Aib]HSSNNFGPILPPTNVGSRTY-NH2; disulfide 3-8; N-terminus assumed), in experiment [1], the “Ratio (selectivity hAMYR vs hCTR, ratio of EC50 values at the two receptors)” value is 9.5 and the EC50 stood at 414 pM. Moreover, the half-maximal effective concentration (EC50) in experiment [2] was 3950 pM.

The values are drawn from US20240067693A1, “POLYPEPTIDES AND USES THEREOF” (MEDIMMUNE LIMITED, priority 2020, published 2024).
